The record followed here is patent publication US20240116985A1, “STAPLED PEPTIDES AND METHODS THEREOF” (priority 2020, published 2024).

In experiment [1] the target is T1, full-length beta-Catenin (Uniprot ID P35222) (Homo sapiens, UniProt P35222).
T1 construct: 10 nM full-length beta-Catenin (Uniprot ID P35222)
T1 sequence (P35222 1-781): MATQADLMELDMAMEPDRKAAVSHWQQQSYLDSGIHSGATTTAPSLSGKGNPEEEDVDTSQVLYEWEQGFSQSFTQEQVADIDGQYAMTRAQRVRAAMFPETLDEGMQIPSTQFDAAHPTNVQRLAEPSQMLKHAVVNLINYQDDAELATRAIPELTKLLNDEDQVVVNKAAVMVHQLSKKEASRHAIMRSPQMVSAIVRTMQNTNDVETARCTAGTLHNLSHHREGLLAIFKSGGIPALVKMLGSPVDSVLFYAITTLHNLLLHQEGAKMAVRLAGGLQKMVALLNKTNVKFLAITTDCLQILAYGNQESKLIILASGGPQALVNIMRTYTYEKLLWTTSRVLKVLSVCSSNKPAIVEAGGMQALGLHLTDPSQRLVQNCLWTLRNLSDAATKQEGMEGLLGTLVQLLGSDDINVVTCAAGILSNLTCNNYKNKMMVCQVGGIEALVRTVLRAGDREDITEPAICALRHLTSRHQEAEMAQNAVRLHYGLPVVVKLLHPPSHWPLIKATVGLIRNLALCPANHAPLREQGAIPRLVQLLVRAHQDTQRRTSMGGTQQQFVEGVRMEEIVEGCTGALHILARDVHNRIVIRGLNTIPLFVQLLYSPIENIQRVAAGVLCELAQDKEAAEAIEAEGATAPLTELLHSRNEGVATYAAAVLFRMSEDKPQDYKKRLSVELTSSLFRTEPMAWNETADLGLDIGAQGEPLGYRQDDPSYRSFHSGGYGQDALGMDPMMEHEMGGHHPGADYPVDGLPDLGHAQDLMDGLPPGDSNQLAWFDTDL
The experiment can be described thus: Fluorescence polarization IC50 (beta-catenin / 5FAM-TCF4 10-53 competition). The class given is binding. Particulars: fluorescence polarization; read-out: beta-Catenin FP IC50.

The target of experiment [2] is T2, beta-catenin/TCF4 engagement (Homo sapiens, UniProt P35222).
T2 construct: expressed in transfected cells; host or cells: HEK293
T2 sequence (P35222 1-781): T1 sequence (P35222 1-781)
The experiment in a line: Nano-BRET target engagement assay (B-cat-Halo & TCF4-Luc in HEK293 cells). In kind it is cell-based. Particulars: absolute IC50; read-out: NanoBRET Abs IC50. In general terms: In BRET a luciferase serves as donor, and the signal depends on an acceptor being close.

The IC50 is the point on the concentration scale where inhibition reaches its midpoint. On to `CC(=O)N1CCC[C@]12CC=CCCCC1(CCCC=CCCCOC(=O)N3CC[C@@](C(=O)N[C@@H](Cc4ccccc4C(F)(F)F)C(=O)N[C@@H](Cc4csc5ccccc45)C(=O)N[C@@H](CO)C(N)=O)(C3)NC(=O)[C@H](CC(C)C)NC(=O)[C@H](Cc3ccccc3)NC(=O)[C@H](C)NC(=O)[C@H](C)NC(=O)[C@H](Cc3ccccc3C(=O)O)NC(=O)[C@H](CC(=O)O)NC1=O)NC(=O)[C@H](CC(C)(C)C)NC(=O)[C@H](CC(=O)O)NC2=O` (single isomer, unassigned) [I-1661, Ac-PL3-Asp-Npg-B5-Asp-2COOHF-Ala-Ala-Phe-Leu-PyrS2-2F3MeF-BztA-Ser-NH2], for which the values for the IC50 in experiment [1] and in experiment [2] were 70 nM and 8300 nM, respectively.
For `CC(=O)N1CCC[C@]12CC=CCCCC1(CCCC=CCCCOC(=O)N3CC[C@@](C(=O)N[C@@H](Cc4ccsc4)C(=O)N[C@@H](Cc4csc5ccccc45)C(=O)N[C@@H](CO)C(N)=O)(C3)NC(=O)[C@H](Cc3ccccc3)NC(=O)[C@H](Cc3ccccc3)NC(=O)[C@H](C)NC(=O)[C@H](C)NC(=O)[C@H](Cc3ccccc3C(=O)O)NC(=O)[C@H](CC(=O)O)NC1=O)NC(=O)[C@H](CC(C)(C)C)NC(=O)[C@H](CC(=O)O)NC2=O` (single isomer, unassigned) [I-1664, Ac-PL3-Asp-Npg-B5-Asp-2COOHF-Ala-Ala-Phe-Phe-PyrS2-3Thi-BztA-Ser-NH2], in that order: 22 nM and 8000 nM.
For `CC(=O)N1CCC[C@]12CC=CCCCC1(CCCC=CCCCOC(=O)N3CC[C@@](C(=O)N[C@@H](Cc4ccsc4)C(=O)N[C@@H](Cc4csc5ccccc45)C(=O)N[C@@H](CO)C(N)=O)(C3)NC(=O)[C@H](Cc3ccccc3)NC(=O)[C@H](Cc3ccccc3)NC(=O)[C@H](C)NC(=O)[C@H](C)NC(=O)[C@H](Cc3ccccc3C(=O)O)NC(=O)[C@H](CC(=O)O)NC1=O)NC(=O)[C@H](CC(C)(C)C)NC(=O)[C@H](CC(=O)O)NC2=O` (single isomer, unassigned) [I-1665, Ac-PL3-Asp-Npg-B5-Asp-2COOHF-Ala-Ala-Phe-Phe-PyrS2-3Thi-BztA-Ser-NH2], in that order: 17 nM and 9700 nM.
For `CC(=O)N1CCC[C@]12CC=CCCCC1(CCCC=CCCCOC(=O)N3CC[C@@](C(=O)N[C@@H](Cc4ccsc4)C(=O)N[C@@H](Cc4csc5ccccc45)C(=O)N[C@@H](CO)C(N)=O)(C3)NC(=O)[C@H](CC(C)C)NC(=O)[C@H](Cc3ccccc3)NC(=O)[C@H](C)NC(=O)[C@H](C)NC(=O)[C@H](Cc3ccccc3C(=O)O)NC(=O)[C@H](CC(=O)O)NC1=O)NC(=O)[C@H](CC(C)(C)C)NC(=O)[C@H](CC(=O)O)NC2=O` (single isomer, unassigned) [I-1666, Ac-PL3-Asp-Npg-B5-Asp-2COOHF-Ala-Ala-Phe-Leu-PyrS2-3Thi-BztA-Ser-NH2], in that order: 15 nM and 6500 nM.
For the compound `CC(=O)N1CCC[C@]12CC=CCCCC1(CCCC=CCCCOC(=O)N3CC[C@@](C(=O)N[C@@H](Cc4ccsc4)C(=O)N[C@@H](Cc4csc5ccccc45)C(=O)N[C@H](CO)[C@@H](C)O)(C3)NC(=O)[C@H](Cc3ccccc3)NC(=O)[C@H](Cc3ccccc3)NC(=O)[C@H](C)NC(=O)[C@H](C)NC(=O)[C@H](Cc3ccccc3C(=O)O)NC(=O)[C@H](CC(=O)O)NC1=O)NC(=O)[C@H](CC(C)(C)C)NC(=O)[C@H](CC(=O)O)NC2=O` (single isomer, unassigned) [I-1668, Ac-PL3-Asp-Npg-B5-Asp-2COOHF-Ala-Ala-Phe-Phe-PyrS2-3Thi-BztA-Thro1], the IC50 in experiment [1] is 29 nM; in experiment [2], 16400 nM.
As for `CC(=O)N1CCC[C@]12CC=CCCCC1(CCCC=CCCCOC(=O)N3CC[C@@](C(=O)N[C@@H](Cc4ccsc4)C(=O)N[C@@H](Cc4csc5ccccc45)C(=O)N[C@H](CO)[C@@H](C)O)(C3)NC(=O)[C@H](Cc3ccccc3)NC(=O)[C@H](Cc3ccccc3)NC(=O)[C@H](C)NC(=O)[C@H](C)NC(=O)[C@H](Cc3ccccc3C(=O)O)NC(=O)[C@H](CC(=O)O)NC1=O)NC(=O)[C@H](CC(C)(C)C)NC(=O)[C@H](CC(=O)O)NC2=O` (single isomer, unassigned) [I-1669, Ac-PL3-Asp-Npg-B5-Asp-2COOHF-Ala-Ala-Phe-Phe-PyrS2-3Thi-BztA-Thro1], the IC50 in experiment [1] stood at 30 nM; in experiment [2], 11800 nM.
On to `CC(=O)N1CCC[C@]12CC=CCCCC1(CCCC=CCCCOC(=O)N3CC[C@@](C(=O)N[C@@H](Cc4ccsc4)C(=O)N[C@@H](Cc4csc5ccccc45)C(=O)N[C@H](CO)[C@@H](C)O)(C3)NC(=O)[C@H](CC(C)C)NC(=O)[C@H](Cc3ccccc3)NC(=O)[C@H](C)NC(=O)[C@H](C)NC(=O)[C@H](Cc3ccccc3C(=O)O)NC(=O)[C@H](CC(=O)O)NC1=O)NC(=O)[C@H](CC(C)(C)C)NC(=O)[C@H](CC(=O)O)NC2=O` (single isomer, unassigned) [I-1670, Ac-PL3-Asp-Npg-B5-Asp-2COOHF-Ala-Ala-Phe-Leu-PyrS2-3Thi-BztA-Thro1], for which the IC50 in experiment [1] came to 11 nM; in experiment [2], 7900 nM.
As for `CC(=O)N1CCC[C@]12CC=CCCCC1(CCCC=CCCCCCC[C@@](C)(C(=O)N[C@@H](Cc3ccccc3)C(=O)N[C@@H](Cc3csc4ccccc34)C(=O)N[C@@H](CCC(N)=O)C(N)=O)NC(=O)[C@H](CCO)NC(=O)[C@H](Cc3ccccc3)NC(=O)[C@H](C)NC(=O)[C@H](C)NC(=O)[C@H](CCC(=O)O)NC(=O)[C@H](CC(=O)O)NC1=O)NC(=O)[C@H](CO)NC(=O)[C@H](CC(=O)O)NC2=O` (stereo partly drawn) [I-1529, Ac-PL3-Asp-Ser-B5-Asp-Glu-Ala-Ala-Phe-Hse-S8-Phe-BztA-Gln-NH2], in experiment [2], the IC50 was above 20000 nM.
On the same count and under the same terms, then `CCN(CC)C(=O)[C@H](CCC(N)=O)NC(=O)[C@H](Cc1csc2ccccc12)NC(=O)[C@H](Cc1ccsc1)NC(=O)[C@]12CCN(C1)C(=O)OCCCC=CCCCC1(CCCC=CC[C@]3(CCCN3C(C)=O)C(=O)N[C@@H](CC(=O)O)C(=O)N[C@@H](CC(C)(C)C)C(=O)N1)C(=O)N[C@@H](CC(=O)O)C(=O)N[C@@H](CN(CC(=O)O)CC(F)(F)F)C(=O)N[C@@H](C)C(=O)N[C@@H](C)C(=O)N[C@@H](Cc1ccccc1)C(=O)N[C@@H](CC(N)=O)C(=O)N2` (stereo partly drawn) [I-1641, Ac-PL3-Asp-Npg-B5-Asp-TfeGA-Ala-Ala-Phe-Asn-PyrS2-3Thi-BztA-Gln-NEt2], with 14700 nM; and `CC(=O)N1CCC[C@]12CC=CCCCC1(CCCC=CCCCOC(=O)N3CC[C@@](C(=O)N[C@@H](Cc4ccsc4)C(=O)N[C@@H](Cc4csc5ccccc45)C(=O)N[C@@H](CCC(N)=O)C(N)=O)(C3)NC(=O)[C@H](CC(N)=O)NC(=O)[C@H](Cc3ccccc3)NC(=O)[C@H](C)NC(=O)C3(CC3)NC(=O)[C@H]([C@@H](C)O)NC(=O)[C@H](CC(N)=O)NC1=O)NC(=O)[C@H](CC(C)(C)C)NC(=O)[C@H](CC(=O)O)NC2=O` (stereo partly drawn) [I-2492, Ac-PL3-Asp-Npg-B5-Asn-Thr-Cpg-Ala-Phe-Asn-PyrS2-3Thi-BztA-Gln-NH2], with above 20000 nM.
With `CC(=O)N1CCC[C@]12CC=CCCCC1(CCCC=CCCCOC(=O)N3CC(C(=O)N[C@@H](Cc4ccsc4)C(=O)N[C@@H](Cc4csc5ccccc45)C(=O)N[C@@H](CCC(N)=O)C(N)=O)(C3)NC(=O)[C@H](CC(C)C)NC(=O)[C@H](Cc3ccccc3)NC(=O)[C@H](C)NC(=O)C(C)(C)NC(=O)[C@H](Cc3cccc(C(=O)O)c3)NC(=O)[C@H](CC(=O)O)NC1=O)NC(=O)[C@H](CC(C)(C)C)NC(=O)[C@H](CC(=O)O)NC2=O` (stereo partly drawn) [I-2617, Ac-PL3-Asp-Npg-B5-Asp-3COOHF-Aib-Ala-Phe-Leu-Az2-3Thi-BztA-Gln-NH2], the concentration for half-maximal inhibition (IC50) in experiment [1] came to 130 nM.
Same read-out and setting: for `CC(=O)N1CCC[C@]12CC=CCCCC1(CCCC=CCCCCOC(=O)N3CC(C(=O)N[C@@H](Cc4ccsc4)C(=O)N[C@@H](Cc4csc5ccccc45)C(=O)N[C@@H](CCC(N)=O)C(N)=O)(C3)NC(=O)[C@H](CC(C)C)NC(=O)[C@H](Cc3ccccc3)NC(=O)[C@H](C)NC(=O)C(C)(C)NC(=O)[C@H](Cc3cccc(C(=O)O)c3)NC(=O)[C@H](CC(=O)O)NC1=O)NC(=O)[C@H](CC(C)(C)C)NC(=O)[C@H](CC(=O)O)NC2=O` (stereo partly drawn) [I-2618, Ac-PL3-Asp-Npg-B5-Asp-3COOHF-Aib-Ala-Phe-Leu-Az3-3Thi-BztA-Gln-NH2] the value was 77 nM.
On the same count and under the same terms, for `CC(=O)N1CCC[C@]12CC=CCCCC1(CCCC=CCCCCOC(=O)N3CC(C(=O)N[C@@H](Cc4ccsc4)C(=O)N[C@@H](Cc4csc5ccccc45)C(=O)N[C@@H](CCC(N)=O)C(N)=O)(C3)NC(=O)[C@H](CC(C)C)NC(=O)[C@H](Cc3ccccc3)NC(=O)[C@H](C)NC(=O)C(C)(C)NC(=O)[C@H](Cc3cccc(C(=O)O)c3)NC(=O)[C@H](CC(=O)O)NC1=O)NC(=O)[C@H](CC(C)(C)C)NC(=O)[C@H](CC(=O)O)NC2=O` (stereo partly drawn) [I-2619, Ac-PL3-Asp-Npg-B5-Asp-3COOHF-Aib-Ala-Phe-Leu-Az3-3Thi-BztA-Gln-NH2] the value was 36 nM.
